Consider 5 compounds from US20250263376A1, “(E)-N-CINNAMOYLAMINOALKANOLS WITH MELANOGENESIS INHIBITORY ACTIVITY” (Uniwersytet Jagiellonski, priority 2024, published 2025).

Data set [1] concerns human reconstructed epidermis model EpiDerm. As to the kind of experiment: Extended skin irritation test in reconstructed human epidermis EpiDerm. The data set is classed as cell-based. As to conditions: for Il-1α in culture medium: medium after first 24 hours. The protocol: Extended Skin Irritation Tests on Reconstructed Human Epidermis-Exposure Time Extended to 7 Days.
In order to perform extended skin irritation (safety) tests on the reconstructed human epidermis, the exposure time to the tested compounds was extended to 2 and 7 days in the human reconstructed epidermis model EpiDerm™ from MatTek. The epidermis was cultured according to the manufacturer's recommendations, using appropriate multi-well plates and culture media. Solutions of the tested compounds were applied to the epidermis using a positive displacement pipette and distributed using a sterile glass bulb headed Pasteur pipette. […] The epidermis was cultured in an incubator ensuring appropriate humidity, temperature (37° C.) and CO2 concentration (5%). The medium was replaced daily. After an appropriate incubation time, i.e. 2 days or 7 days, the epidermis was rinsed with sterile DPBS and incubated with MTT (Thiazolyl Blue Tetrazolium bromide) solution at 37° C. for 3 hours. After this time, a purple color of formazan was observed, correlated with tissue viability. […] Moreover, in the medium collected after the first 24 hours of EpiDerm epidermis culture, the level of interleukin 1α (Il-1α), which is a mediator of inflammation, was determined. Its level correlates with the unfavorable (irritating) effect of the tested substances on the epidermis. The level of IL-1α was determined using the Cayman Elisa test.

A further data set concerns hepatocarcinoma HepG2. In words: Safety, LDH test in HepG2. Particulars: 48 hours, vs Triton X-100. In kind it is cell-based. The protocol:
(§1) In order to test the safety of the compounds, both normal human cells were used: keratinocytes (HaCaT), fibroblasts (BJ), primary melanocytes that occur in the skin, as well as human cancer cells: the hepatocarcinoma line HepG2 and the neuroblastoma line SH-SY5Y, which are considered a model for the assessment of hepatocytotoxicity and neurocytotoxicity. The concentrations of the tested compounds in the range of […] were used in the studies. The cell lines used in the research were purchased from the American Type Culture Collection (ATCC) and were cultured in media recommended by the manufacturer with the addition of FBS and antibiotics in an incubator ensuring appropriate culture conditions, i.e. humidity, temperature and CO2 concentration. Cells were seeded into multiwell plates and incubated with the test compounds for 48 hours. After this time, MTT and LDH tests were performed to assess cell viability. The MTT test is based on the ability to transform the substrate: [3-(4,5-dimethyl-2-thiazolyl)-2,5-diphenyl-2H-tetrazolium bromide into a colored product only by living cells. The absorbance at 570 nm, which corresponds to the absorption maximum for the product, is directly proportional to cell viability. The LDH test is based on testing the activity of the enzyme lactate dehydrogenase in the culture medium, which is released from cells as a result of damage to the cell membrane, e.g. as a result of cell death. Triton X-100 was used as a positive control in the test. The determination is colorimetric, the substrate is transformed by the released enzyme into a colored product, an increase in absorbance indicates a larger amount of the released enzyme, and thus confirms greater damage to cell membranes. Tables 7 and 8 present the results obtained, which correspond to the viability of cells incubated with the compounds in relation to the viability of cells constituting a control sample, i.e. incubated with the solvent (DMSO) at the same concentration as in the case of the groups tested in the MTT test or in relation to the results obtained for the Triton X-100 positive control in the LDH test. They indicate that the compounds are safe at the concentrations tested.

Data set [2] has as its system reconstructed human epidermis containing melanocytes MelanoDerm MEL-300-B. In words: Melanogenesis inhibition in reconstructed human epidermis containing melanocytes (MelanoDerm). In kind it is cell-based. Particulars: 14 days, MTT. The protocol: Melanogenesis Inhibition Studies in a Model of Reconstructed Human Epidermis Containing Melanocytes (MelanoDerm by Mattek).
The research was carried out on reconstructed human epidermis containing melanocytes MelanoDerm™ MEL-300-B from MatTek (Bratislava, Slovakia). The ratio of keratinocytes to melanocytes in the epidermis used is 10:1. Only medium purchased from the same manufacturer (EPI-100-NMM-113) was used to culture the epidermis during the experiments. Once the epidermis was obtained, it was transferred to 12-well plates containing 5 mL of medium/well. Plates were used to enable proper contact of the lower parts of the inserts with the substrate (so-called hanging-top plate). Solutions of the compounds were prepared immediately before their application. The solutions were applied to the inserts using a positive displacement pipette and then distributed using a sterile glass bulb headed Pasteur pipette. The application was repeated every 48 hours, a total of 7 applications were performed. Before the next application, each insert was rinsed with sterile DPBS and dried with a sterile cotton buds. The application was also accompanied by a change of the medium. […] The epidermis was cultured in an incubator ensuring appropriate humidity, temperature (37° C.) and CO2 concentration (5%).
The experiment was conducted for 14 days. After this time, the inserts were rinsed with DPBS and dried with a cotton swab. For the selected pool of inserts, tissue viability was assessed using the MTT (Thiazolyl Blue Tetrazolium bromide) test, the remaining ones were used to determine the amount of melanin. To assess viability, the inserts were transferred to 24-well plate containing 0.3 mL of DMEM medium with 1 mg/mL MTT and incubated for 3 hours in an incubator. The epidermis was then placed in 2 mL of isopropanol and the resulting formazan was extracted for 2 hours at room temperature. The absorbance of the samples was measured at 570 nm in a microplate reader and correlated with the absorbance of the control by the formula: % Viability=[OD (570 nm) for test compound/OD (570 nm) for control]×100. To determine the amount of melanin, the inserts were incubated in 5% sodium bicarbonate for 30 min, then dried and placed in 0.5 mL of Solvable™ reagent, which caused complete lysis of the epidermis. After heating at 95° C., the absorbance of the samples was measured at 405 nm in a microplate reader. On this basis, the reduction in the amount of melanin was calculated in relation to the control sample. The absorbance results were also correlated with a standard curve for synthetic melanin.

A further data set deals with fibroblasts (BJ). In words: Safety, LDH test in fibroblasts. In kind it is cell-based. As to conditions: 48 hours, vs Triton X-100. The protocol: as §1
A further data set concerns S. typhimurium TA98. In words: Ames microplate test, TA98. In kind it is cell-based, Salmonella typhimurium. The protocol:
Bacteria were grown overnight in growth medium.

Regarding `O=C(/C=C/c1ccc(Cl)cc1)NCCCCCO` [Compound A-111, (2E)-3-(4-chlorophenyl)-N-(5-hydroxypentyl)prop-2-enamide], the figures for the “Viability [% of control, mean ± SD] 2 days” value in data set [1] (0.1% in 50% PEG (10 μL)), in data set [1] (0.5% in 50% PEG (10 μL)) and in data set [1] (1.0% in 50% PEG (10 μL)) were 88.42 ± 1.25 % of control, 92.02 ± 3.47 % of control and 98.56 ± 11.78 % of control, respectively. The “Viability [% of control, mean ± SD] 7 days” value was 107.77 ± 3.12 % of control in data set [1] (0.1% in 50% PEG (10 μL)), 113.85 ± 4.03 % of control in data set [1] (0.5% in 50% PEG (10 μL)) and 100.41 ± 1.52 % of control in data set [1] (1.0% in 50% PEG (10 μL)). For the same compound, the “Il-1α in culture medium” value in data set [1] (1.0% in 50% PEG (10 μL)) is on record as 15.89 ± .057 pg/mL. Also, the “LDH, Hepatocarcinoma HepG2” value with hepatocarcinoma HepG2 (100 μM) is 4.90 percentage of positive control; with hepatocarcinoma HepG2 (150 μM) it was 4.73 percentage of positive control; in the data set with hepatocarcinoma HepG2 (200 μM), 5.48 percentage of positive control; with hepatocarcinoma HepG2 (250 μM) it was 9.75 percentage of positive control. Also, the “Viability [% control, mean ± SD]” value amounted to 101.45 ± 6.45 % control in data set [2] (1.0% in 50% PEG (10 μL)), 85.67 ± 7.25 % control in data set [2] (1.0% in 50% PEG (25 μL)) and 106.64 ± 7.78 % control in data set [2] (2.0% in 50% PEG (25 μL)). The “LDH, Fibroblasts (BJ)” value is recorded as 5.25 percentage of positive control with fibroblasts (BJ) (100 μM), 5.37 percentage of positive control in the data set on fibroblasts (BJ) (150 μM), 8.43 percentage of positive control in the data set with fibroblasts (BJ) (200 μM) and 14.90 percentage of positive control with fibroblasts (BJ) (250 μM). In addition, the “Increase in the number of yellow wells compared to the reference level, TA98” value (“Increase in the number of yellow wells” below) turned out to be 1.50 in the data set with S. typhimurium TA98 (0.5 mM, + S9); 0.7 in the data set on S. typhimurium TA98 (0.5 mM, without S9); 0.83 in the data set on S. typhimurium TA98 (1.0 mM, + S9); 0.44 with S. typhimurium TA98 (1.0 mM, without S9); 1.50 with S. typhimurium TA98 (2.0 mM, + S9); 1.00 in the data set with S. typhimurium TA98 (2.0 mM, without S9).

As to `O=C(/C=C/c1ccc(Cl)cc1)NCCCO` [H-330/21, (2E)-3-(4-chlorophenyl)-N-(3-hydroxypropyl)prop-2-enamide], the “LDH, Hepatocarcinoma HepG2” value in the data set with hepatocarcinoma HepG2 (100 μM) is on record as 5.38 percentage of positive control; in the data set on hepatocarcinoma HepG2 (150 μM) it was 4.90 percentage of positive control; with hepatocarcinoma HepG2 (200 μM), 12.16 percentage of positive control; with hepatocarcinoma HepG2 (250 μM) it was 19.02 percentage of positive control. The “LDH, Fibroblasts (BJ)” value in the data set on fibroblasts (BJ) (100 μM) is recorded as 4.74 percentage of positive control; in the data set with fibroblasts (BJ) (150 μM), 6.50 percentage of positive control; with fibroblasts (BJ) (200 μM), 14.25 percentage of positive control; with fibroblasts (BJ) (250 μM), 28.74 percentage of positive control.

With `Cc1ccc(/C=C/C(=O)NCCCCCO)cc1` [H-415/21, (2E)-N-(5-hydroxypentyl)-3-(4-methylphenyl)prop-2-enamide], the “LDH, Hepatocarcinoma HepG2” value with hepatocarcinoma HepG2 (100 μM) is 3.90 percentage of positive control; with hepatocarcinoma HepG2 (150 μM), 7.24 percentage of positive control; in the data set on hepatocarcinoma HepG2 (200 μM) it was 8.92 percentage of positive control; with hepatocarcinoma HepG2 (250 μM), 15.47 percentage of positive control. The “LDH, Fibroblasts (BJ)” value was 8.81 percentage of positive control in the data set on fibroblasts (BJ) (100 μM), 8.75 percentage of positive control in the data set with fibroblasts (BJ) (150 μM), 9.82 percentage of positive control with fibroblasts (BJ) (200 μM) and 16.63 percentage of positive control in the data set with fibroblasts (BJ) (250 μM). For the same compound, the “Increase in the number of yellow wells” value with S. typhimurium TA98 (0.5 mM, without S9) is 0.47; in the data set with S. typhimurium TA98 (1.0 mM, without S9) it was 0.24; with S. typhimurium TA98 (2.0 mM, without S9) it was 0.35.

`O=C(/C=C/c1ccccc1)NCCCCCCO` [H-425/21, (E)-N-(6-hydroxyhexyl)cinnamic acid amide]: the “Viability [% of control, mean ± SD] 2 days” value in data set [1] (1.0% in 50% PEG (10 μL)) is listed as 99.75 ± 15.49 % of control. Further, the “Viability [% of control, mean ± SD] 7 days” value in data set [1] (1.0% in 50% PEG (10 μL)) is 104.01 ± 1.11 % of control. Further, the “Il-1α in culture medium” value in data set [1] (1.0% in 50% PEG (10 μL)) was found to be 60.29 ± 1.08 pg/mL. In data set [2] (1.0% in 50% PEG (10 μL)), the “Viability [% control, mean ± SD]” value amounted to 87.16 ± 6.30 % control. Also, the “Increase in the number of yellow wells” value with S. typhimurium TA98 (0.5 mM, + S9) was 0.42; in the data set on S. typhimurium TA98 (0.5 mM, without S9), 0.27; with S. typhimurium TA98 (1.0 mM, + S9), 0.42; in the data set on S. typhimurium TA98 (1.0 mM, without S9), 0.54; with S. typhimurium TA98 (2.0 mM, + S9), 0.63; in the data set on S. typhimurium TA98 (2.0 mM, without S9), 0.80.

`O=C(/C=C/c1ccc(Cl)cc1)NCCO` [H-427/21, (2E)-3-(4-chlorophenyl)-N-(2-hydroxyethyl)prop-2-enamide]: the “LDH, Hepatocarcinoma HepG2” value in the data set on hepatocarcinoma HepG2 (100 μM) is 3.09 percentage of positive control; with hepatocarcinoma HepG2 (150 μM), 4.45 percentage of positive control; in the data set on hepatocarcinoma HepG2 (200 μM) it was 5.98 percentage of positive control; with hepatocarcinoma HepG2 (250 μM) it was 13.51 percentage of positive control. In addition, the “LDH, Fibroblasts (BJ)” value is listed as 2.75 percentage of positive control in the data set on fibroblasts (BJ) (100 μM), 5.92 percentage of positive control in the data set with fibroblasts (BJ) (150 μM), 9.00 percentage of positive control with fibroblasts (BJ) (200 μM) and 17.32 percentage of positive control in the data set with fibroblasts (BJ) (250 μM).
